These results are taken from US8202856B2 (Merck Serono SA, priority 2007, dated 2012).

Where a name gives a salt, the structure may show the parent alone.

By EC50 is commonly meant the concentration that produces a half-maximal response.

The target of one experiment is S1P1 receptor (Homo sapiens, UniProt P21453). Nature of the experiment: 35S-GTPγS binding, membranes from CHO cells expressing S1P1. The experiment is classed as biochemical. The following applies: CHO cell membranes expressing S1P1. The procedure, abridged:
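Membranes (1–10 μg) from CHO cells expressing the receptor were incubated with compound in 20 mM HEPES pH 7.4, 10 mM MgCl2, 140 mM NaCl, 1.7 μM GDP, saponin and 0.2% BSA. [35S]GTPγS (added at 1.5 nM) was then bound for 60 min at 30 °C. Membrane-bound radioactivity, averaged over triplicates, is expressed relative to S1P activation (n=2).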
(In general: Binding of GTPγS marks nucleotide exchange on a G protein.)

Another experiment deals with S1P3 receptor (Homo sapiens, UniProt Q99500). Description: 35S-GTPγS binding, membranes from CHO cells expressing S1P3. The experiment is classed as biochemical. The following applies: CHO cell membranes expressing S1P3. The procedure:
Receptor binding assay: Membranes were prepared from CHO cells expressing S1P1 or S1P3 for use in ligand and 35S-GTPTS binding studies. Cells were suspended in 50 mM TRIS, pH 7.4, 2 mM EDTA, 250 mM Sucrose (buffer A) and 1× Complete protease inhibitor cocktail (Roche), and disrupted at 4° C. by nitrogen decompression using a cell disruption bomb (Parr Instrument). Following centrifugation at 1000 RPM for 10 min at 4° C., the supernatant was suspended in buffer A and centrifuged again at 19000 RPM for 60 min at 4° C. The pellet was then suspended in 10 mM HEPES, pH 7.4, 1 mM EDTA, 250 mM Sucrose (Buffer B), and 1× Complete EDTA-free protease inhibitor cocktail and homogenized using a potter. Membranes were flash frozen in liquid nitrogen and stored at −80° C. [33P]sphingosine 1-phosphate (3000 Ci/mmol; American Radiolabeled Chemicals, Inc.) was added to test compounds in DMSO. Membranes and WGA SPA beads (GE Healthcare) were added to give a final volume of 100 μl in 96-well plates with assay concentrations of […] [33P]sphingosine 1-phosphate (respectively for S1P1 or S1P3), 50 mM HEPES, pH 7.5, 5 mM MgCl2, 100 mM NaCl, 0.4% fatty acid-free BSA, 1-5 μg/well of proteins and 100 μg/well of WGA SPA beads. Binding was performed for 60 min at room temperature on a shaker and bound radioactivity was measured on a PerkinElmer 1450 MicroBeta counter. Specific binding was calculated by subtracting remaining radioactivity in the presence of 1000-fold excess of unlabeled S1P. Binding data were analyzed using the GraphPad Prism program.
Measurements of ^35S-GTPγS Binding: Membranes (1 to 10 μg protein) prepared as described above, were incubated in 96-well Scintiplates (PerkinElmer) with test compounds diluted in DMSO, in 180 μl of 20 mM HEPES, pH 7.4, 10 mM MgCl2, 2 μg/well Saponin, 0.2% fatty acid free BSA (Assay buffer), 140 mM NaCl and 1.7 μM GDP. The assay was initiated with the addition of 20 μl of 1.5 nM [35S]-GTPγS (1100 Ci/mmol; GE Healthcare) in assay buffer. After 60 min incubation at 30° C. on a shaker, plates were centrifuged for 10 min at 2000 RPM. Supernatant was discarded and membrane bound radioactivity was measured on a PerkinElmer 1450 MicroBeta counter. Triplicate samples were averaged and expressed as response relative to S1P activation in absence of compound (n=2).

S1P3 receptor, sequence (Q99500 whole entry): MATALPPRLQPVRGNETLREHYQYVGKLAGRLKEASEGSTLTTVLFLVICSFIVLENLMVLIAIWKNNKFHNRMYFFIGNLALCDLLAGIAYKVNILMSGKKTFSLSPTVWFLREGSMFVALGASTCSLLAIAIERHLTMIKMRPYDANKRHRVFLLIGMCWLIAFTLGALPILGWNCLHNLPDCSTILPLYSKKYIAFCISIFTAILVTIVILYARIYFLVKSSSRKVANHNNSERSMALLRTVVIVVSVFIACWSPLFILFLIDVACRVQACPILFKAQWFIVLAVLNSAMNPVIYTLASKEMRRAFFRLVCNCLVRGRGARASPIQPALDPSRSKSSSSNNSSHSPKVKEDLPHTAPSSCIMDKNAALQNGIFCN
S1P1 receptor, sequence (P21453 whole entry): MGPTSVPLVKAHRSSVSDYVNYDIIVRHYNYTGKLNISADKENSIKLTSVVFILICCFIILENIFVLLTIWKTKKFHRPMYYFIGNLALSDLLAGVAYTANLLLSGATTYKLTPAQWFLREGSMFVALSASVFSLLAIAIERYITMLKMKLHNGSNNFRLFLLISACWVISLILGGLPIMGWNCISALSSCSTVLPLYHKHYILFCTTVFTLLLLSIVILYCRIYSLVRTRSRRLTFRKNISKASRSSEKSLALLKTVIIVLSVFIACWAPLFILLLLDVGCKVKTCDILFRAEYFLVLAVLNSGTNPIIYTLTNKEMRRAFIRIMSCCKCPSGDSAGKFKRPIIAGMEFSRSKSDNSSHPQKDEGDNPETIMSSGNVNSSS

Turning to `COc1ccccc1-c1noc(-c2nnn(-c3ccccc3F)c2-c2ccncc2)n1` [Example 40, 4-{1-(2-fluorophenyl)-4-[3-(2-methoxyphenyl)-1,2,4-oxadiazol-5-yl]-1H-1,2,3-triazol-5-yl}pyridine], the concentration giving a half-maximal response (EC50) at S1P1 receptor is 120 nM; on S1P3 receptor, above 20000 nM.

As to `Fc1ccccc1-n1nnc(-c2nc(-c3ccncc3)no2)c1-c1ccncc1` [Example 41, 4-[1-(2-fluorophenyl)-4-(3-pyridin-4-yl-1,2,4-oxadiazol-5-yl)-1H-1,2,3-triazol-5-yl]pyridine], the concentration for a half-maximal effect (EC50) at S1P1 receptor was 160 nM; at S1P3 receptor, above 20000 nM.

Turning to `COCCc1c(-c2nc(-c3cccnc3)no2)nnn1-c1ccccc1F` [Example 46, 3-{5-[1-(2-fluorophenyl)-5-(2-methoxyethyl)-1H-1,2,3-triazol-4-yl]-1,2,4-oxadiazol-3-yl}pyridine], the EC50 on S1P1 receptor was 516 nM; at S1P3 receptor, above 20000 nM.

With `COCc1c(-c2nc(-c3cccnc3)no2)nnn1-c1ccccc1F` [Example 47, 3-{5-[1-(2-fluorophenyl)-5-(methoxymethyl)-1H-1,2,3-triazol-4-yl]-1,2,4-oxadiazol-3-yl}pyridine], the EC50 on S1P1 receptor is 672 nM; on S1P3 receptor, above 20000 nM.

In the case of `COc1ccc(-c2noc(-c3nnn(-c4ccccc4F)c3-c3ccncc3)n2)cc1` [Example 48, 4-{1-(2-fluorophenyl)-4-[3-(4-methoxyphenyl)-1,2,4-oxadiazol-5-yl]-1H-1,2,3-triazol-5-yl}pyridine], the EC50 on S1P1 receptor came out at 127 nM; at S1P3 receptor it was 10400 nM.

In the case of `COCCc1c(-c2nc(-c3ccccc3F)no2)nnn1-c1ccccc1F` [Example 49, 3-(2-fluorophenyl)-5-[1-(2-fluorophenyl)-5-(2-methoxyethyl)-1H-1,2,3-triazol-4-yl]-1,2,4-oxadiazole], the concentration for a half-maximal effect (EC50) is 119 nM at S1P1 receptor and 13300 nM on S1P3 receptor.

For `COc1cccc(-c2noc(-c3nnn(-c4ccccc4F)c3-c3ccncc3)n2)c1` [Example 51, 4-{1-(2-fluorophenyl)-4-[3-(3-methoxyphenyl)-1,2,4-oxadiazol-5-yl]-1H-1,2,3-triazol-5-yl}pyridine], the EC50 at S1P1 receptor is 10 nM; at S1P3 receptor, 741 nM.

Regarding `CS(=O)(=O)c1cccc(-c2noc(-c3nnn(-c4ccccc4F)c3-c3ccncc3)n2)c1` [Example 52, 4-(1-(2-fluorophenyl)-4-{3-[3-(methylsulfonyl)phenyl]-1,2,4-oxadiazol-5-yl}-1H-1,2,3-triazol-5-yl)pyridine], the EC50 is 33 nM at S1P1 receptor and above 20000 nM at S1P3 receptor.

For `Fc1ccccc1-c1noc(-c2nnn(-c3ccccc3F)c2C2CCOCC2)n1` [Example 59, 3-(2-fluorophenyl)-5-[1-(2-fluorophenyl)-5-(tetrahydro-2H-pyran-4-yl)-1H-1,2,3-triazol-4-yl]-1,2,4-oxadiazole], the concentration giving a half-maximal response (EC50) on S1P1 receptor was 154 nM; at S1P3 receptor, above 20000 nM.

Consider `Fc1ccccc1-n1nnc(-c2nc(-c3cccc(Cn4cncn4)c3)no2)c1-c1ccncc1` [Example 61, 4-(1-(2-fluorophenyl)-4-{3-[3-(1H-1,2,4-triazol-1-ylmethyl)phenyl]-1,2,4-oxadiazol-5-yl}-1H-1,2,3-triazol-5-yl)pyridine], for which the EC50 at S1P1 receptor is 182 nM; at S1P3 receptor, above 20000 nM.

`Fc1ccc(F)c(-c2noc(-c3nnn(-c4ccccc4F)c3C3CCOCC3)n2)c1` [Example 62]: the results for the EC50 at S1P1 receptor and at S1P3 receptor were 46 nM and above 20000 nM, respectively.

As to `COCc1c(-c2nc(-c3ccc4[nH]ccc4c3)no2)nnn1-c1ccccc1F` [Example 65, 5-{5-[1-(2-fluorophenyl)-5-(methoxymethyl)-1H-1,2,3-triazol-4-yl]-1,2,4-oxadiazol-3-yl}-1H-indole], the EC50 is 119 nM at S1P1 receptor and above 20000 nM at S1P3 receptor.

Regarding `COCc1c(-c2nc(-c3cccc(S(C)(=O)=O)c3)no2)nnn1-c1ccccc1F` [Example 68, 5-[1-(2-fluorophenyl)-5-(methoxymethyl)-1H-1,2,3-triazol-4-yl]-3-[3-(methylsulfonyl)phenyl]-1,2,4-oxadiazole], the EC50 on S1P1 receptor is 594 nM; on S1P3 receptor, above 20000 nM.

Turning to `Fc1ccc(F)c(-c2noc(-c3nnn(-c4ccccc4F)c3C3CC3)n2)c1` [Example 69, 5-[5-cyclopropyl-1-(2-fluorophenyl)-1H-1,2,3-triazol-4-yl]-3-(2,5-difluorophenyl)-1,2,4-oxadiazole], the EC50 was 116 nM at S1P1 receptor and above 20000 nM at S1P3 receptor.

`Fc1ccc(F)c(-c2noc(-c3nnn(-c4ccccc4F)c3C3CCCC3)n2)c1` [Example 77, 5-[5-cyclopentyl-1-(2-fluorophenyl)-1H-1,2,3-triazol-4-yl]-3-(2,5-difluorophenyl)-1,2,4-oxadiazole]: the EC50 at S1P1 receptor turned out to be 206 nM; at S1P3 receptor, 33 nM.

As to `NCc1ccc(-c2noc(-c3nnn(-c4ccccc4F)c3-c3ccncc3)n2)cc1` [Example 80, 1-(4-{5-[1-(2-fluorophenyl)-5-pyridin-4-yl-1H-1,2,3-triazol-4-yl]-1,2,4-oxadiazol-3-yl}phenyl)methanamine hydrochloride], the EC50 on S1P1 receptor turned out to be 38 nM; on S1P3 receptor, 2270 nM.

On to `Fc1cccc(-c2noc(-c3nnn(-c4ccccc4F)c3-c3ccncc3)n2)c1` [Example 83, 4-{1-(2-fluorophenyl)-4-[3-(3-fluorophenyl)-1,2,4-oxadiazol-5-yl]-1H-1,2,3-triazol-5-yl}pyridine], for which the concentration for a half-maximal effect (EC50) at S1P1 receptor was 17 nM; on S1P3 receptor, 242 nM.

Consider `COCc1c(-c2nc(-c3ccc4[nH]ncc4c3)no2)nnn1-c1ccccc1F` [Example 87, 5-{5-[1-(2-fluorophenyl)-5-(methoxymethyl)-1H-1,2,3-triazol-4-yl]-1,2,4-oxadiazol-3-yl}-1H-indazole], for which the EC50 on S1P1 receptor is 98 nM; on S1P3 receptor, above 20000 nM.

Take `Fc1ccc(F)c(-c2noc(-c3nnn(-c4ccccc4F)c3CN3CCCC3)n2)c1` [Example 92, 3-(2,5-difluorophenyl)-5-[1-(2-fluorophenyl)-5-(pyrrolidin-1-ylmethyl)-1H-1,2,3-triazol-4-yl]-1,2,4-oxadiazole]: the values for the EC50 on S1P1 receptor and at S1P3 receptor were 92 nM and above 20000 nM, respectively.

On to `Fc1ccc(-c2noc(-c3nnn(-c4ccccc4F)c3-c3ccncc3)n2)cc1F` [Example 97, 4-[4-[3-(3,4-difluorophenyl)-1,2,4-oxadiazol-5-yl]-1-(2-fluorophenyl)-1H-1,2,3-triazol-5-yl]pyridine], for which the 50% effective concentration (EC50) on S1P1 receptor was 60 nM; on S1P3 receptor it was above 20000 nM.

In the case of `Fc1ccccc1-n1nnc(-c2nc(-c3cccc(F)c3F)no2)c1-c1ccncc1` [Example 101, 4-[4-[3-(2,3-difluorophenyl)-1,2,4-oxadiazol-5-yl]-1-(2-fluorophenyl)-1H-1,2,3-triazol-5-yl]pyridine], the values for the EC50 on S1P1 receptor and on S1P3 receptor were 9 nM and 214 nM, respectively.

Take `Fc1cc(F)cc(-c2noc(-c3nnn(-c4ccccc4F)c3-c3ccncc3)n2)c1` [Example 102, 4-[4-[3-(3,5-difluorophenyl)-1,2,4-oxadiazol-5-yl]-1-(2-fluorophenyl)-1H-1,2,3-triazol-5-yl]pyridine]: the values for the concentration for a half-maximal effect (EC50) at S1P1 receptor and on S1P3 receptor were 6 nM and 149 nM, respectively.

As for `Cc1cccc(-c2noc(-c3nnn(-c4ccccc4F)c3-c3ccncc3)n2)c1` [Example 104, 4-{1-(2-fluorophenyl)-4-[3-(3-methylphenyl)-1,2,4-oxadiazol-5-yl]-1H-1,2,3-triazol-5-yl}pyridine], the EC50 on S1P1 receptor is 14 nM; on S1P3 receptor, 660 nM.

Regarding `O=C(O)C1CN(Cc2ccc(-c3noc(-c4nnn(-c5ccccc5F)c4-c4ccncc4)n3)cc2)C1` [Example 113, 1-(4-{5-[1-(2-fluorophenyl)-5-pyridin-4-yl-1H-1,2,3-triazol-4-yl]-1,2,4-oxadiazol-3-yl}benzyl)azetidine-3-carboxylic acid], the 50% effective concentration (EC50) at S1P1 receptor came to 2 nM; on S1P3 receptor, 1370 nM.

On to `COCCNCc1ccc(-c2noc(-c3nnn(-c4ccccc4F)c3-c3ccncc3)n2)cc1` [Example 114, N-(4-{5-[1-(2-fluorophenyl)-5-pyridin-4-yl-1H-1,2,3-triazol-4-yl]-1,2,4-oxadiazol-3-yl}benzyl)-2-methoxyethanamine], for which the EC50 is 50 nM on S1P1 receptor and 6680 nM at S1P3 receptor.
